Results published in patent publication US5679674A (priority 1992, dated 1997).
Structures can show the parent of a compound that is named as a salt. Where two headings read alike, the source gives them in different places.

How the values were obtained:
[1] = system: p-Phenylquinone-induced agony (writhing response) in mice; assay: p-Phenylquinone-induced agony test in mice (oral administration); type: in vivo, Male ddy mice; conditions: Mus musculus, 0.25 h, read-out: Analgesic effect (Oral Administration) (ED50, mg/kg) Phenylquinone-induced agony test
Description: p-Phenylquinone-induced agony test in mice (oral administration)
According to the method of Siegmund et al. [Proc. Soc. Exptl. Biol. Med., 95, 729 (1957)], the title test was conducted. Male ddy mice (Japan SLC) each weighing about 20 g were fasted for about 16 hours from the day before the test and divided into groups each including from 5 to 10 mice.
A compound to be tested was dissolved in 0.5% tragacanth and administered orally. After 15 minutes, each 0.1 ml/mouse of 0.03% p-phenylquinone solution was injected intraperitoneally. During 5 to 10 minutes after injection, the number of agony reactions (writhing response) observed in each mouse was counted. Those mice showing 1/2 or less of the mean value of the numbers of agony reactions observed in the control mice injected with only physiological saline were regarded as analgesic-effective animals.

k-receptor = target: T1, k-receptor (Cavia porcellus, UniProt P41144); assay: biochemical; type: binding, guinea pig
T1 construct: The whole brain of male Hertley guinea pigs (Japan SLC); from tissue; host or cells: crude membranes of guinea pig whole brain without cerebellum (Hartley, printed 'Hertley', males)

[2] = system: p-Phenylquinone-induced agony (writhing response) in mice; assay: animal or person; type: in vivo, Male ddy mice; conditions: Mus musculus, sc, 0.25 h, read-out: Analgesic effect (ED50, μg/kg sc) Phenylquinone-induced agony test
μ-receptor = target: T2, μ-receptor (Cavia porcellus, UniProt A0ACM8Q262); design: species or system guinea pig; conditions: read-out: Binding to the receptors (IC50, nM) μ
T2 construct: tritiated DAGO (DAMGO) displacement

[3] = read-out: Binding to the receptors (IC50, nM) k

T1 sequence (P41144 whole entry): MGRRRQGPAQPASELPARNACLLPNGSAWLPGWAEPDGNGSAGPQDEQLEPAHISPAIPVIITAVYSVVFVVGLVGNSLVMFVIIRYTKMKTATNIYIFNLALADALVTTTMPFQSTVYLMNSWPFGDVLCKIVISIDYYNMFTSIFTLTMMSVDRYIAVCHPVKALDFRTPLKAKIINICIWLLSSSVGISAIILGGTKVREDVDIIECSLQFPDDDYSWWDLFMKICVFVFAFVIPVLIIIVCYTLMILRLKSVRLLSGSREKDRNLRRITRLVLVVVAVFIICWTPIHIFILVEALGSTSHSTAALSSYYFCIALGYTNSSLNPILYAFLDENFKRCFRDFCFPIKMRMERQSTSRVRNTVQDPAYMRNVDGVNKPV
T2 sequence (A0ACM8Q262 1-400): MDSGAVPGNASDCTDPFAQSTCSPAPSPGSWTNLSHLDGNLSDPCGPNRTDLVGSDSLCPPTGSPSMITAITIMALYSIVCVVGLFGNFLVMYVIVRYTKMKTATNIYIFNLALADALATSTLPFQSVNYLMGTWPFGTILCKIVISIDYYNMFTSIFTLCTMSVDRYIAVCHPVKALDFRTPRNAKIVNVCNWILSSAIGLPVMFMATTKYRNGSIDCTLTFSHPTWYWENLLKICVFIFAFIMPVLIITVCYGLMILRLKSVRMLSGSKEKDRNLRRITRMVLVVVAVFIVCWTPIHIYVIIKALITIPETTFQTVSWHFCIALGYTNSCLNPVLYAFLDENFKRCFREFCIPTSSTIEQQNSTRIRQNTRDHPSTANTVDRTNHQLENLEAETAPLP

SMILES	ED50 [1] [mg/kg]	IC50 (k-receptor; [3]) [nM]	ED50 [2] [µg/kg]	IC50 (μ-receptor) [nM]	IC50 (k-receptor) [nM]
O=C([C@H]1CCc2cc(Cl)c(Cl)cc21)N1CCSC[C@H]1CN1CCCC1 (relative stereo) [Racemate Corresponding to Compound of Example 1]	0.18				
O=C1C[C@H](C(=O)N2CCSC[C@H]2CN2CCCC2)c2cc(Cl)c(Cl)cc21 (relative stereo) [Racemate Corresponding to Compound of Example 2]	0.79				
O=C1CC[C@H](C(=O)N2CCSC[C@H]2CN2CCCCC2)c2cc(Cl)c(Cl)cc21 (relative stereo) [Racemate Corresponding to Compound of Example 3]	1.22				
O=C([C@@H]1CCc2cc(Cl)c(Cl)cc21)N1CCSC[C@H]1CN1CCCC1 [Corresponding (3R, 1R)]		3500	23900	32000	
O=C([C@@H]1CCc2cc(Cl)c(Cl)cc21)N1CCSC[C@@H]1CN1CCCC1 [Corresponding (3S, 1R)]			10900	12000	21000
O=C([C@H]1CCc2cc(Cl)c(Cl)cc21)N1CCSC[C@@H]1CN1CCCC1 [Corresponding (3S, 1S)]			7800	15000	920
O=C([C@H]1CCc2cc(Cl)c(Cl)cc21)N1CCSC[C@H]1CN1CCCC1 [Example 1, (3R)-3-(1-Pyrrolidinylmethyl)-4-[(1S)-(5,6-dichloro-1-indanecarbonyl]thiomorpholine hydrochloride]	0.011	0.44	1.3	300	
O=C1C[C@H](C(=O)N2CCSC[C@H]2CN2CCCC2)c2cc(Cl)c(Cl)cc21 [Example 2, (3R)-3-(1-Pyrrolidinylmethyl)-4-[(1S)-3-oxo-5,6-dichloro-1-indanecarbonyl]thiomorpholine hydrochloride]	0.031		0.6	330	0.46
O=C1CC[C@H](C(=O)N2CCSC[C@H]2CN2CCCCC2)c2cc(Cl)c(Cl)cc21 [Example 3, (3R)-3-(1-Piperidinylmethyl)-4-[(1S)-6,7-dichloro-4(3H)-oxo-1,2-dihydro-1-naphthoyl]thiomorpholine hydrochloride]	0.29	1.7	13	1800	
